From patent US8268818B2, “Inhibitors of C-MET and uses thereof” (Vertex Pharmaceuticals Incorporated, priority 2006, dated 2012) come the findings set out here.

Read-outs that look alike come from different tables or passages of the source. Where only a bound is given, the exact number is not on record here.

This experiment deals with PI3Kγ (Homo sapiens, UniProt P48736). Briefly: PI3K inhibition assay, Protocol B (33P-ATP, glass fiber filter plate). Format: biochemical. The procedure: Compounds were screened for their ability to inhibit PI3Kγ using one of the assays below.
Sequence of PI3Kγ (P48736 whole entry, species assumed): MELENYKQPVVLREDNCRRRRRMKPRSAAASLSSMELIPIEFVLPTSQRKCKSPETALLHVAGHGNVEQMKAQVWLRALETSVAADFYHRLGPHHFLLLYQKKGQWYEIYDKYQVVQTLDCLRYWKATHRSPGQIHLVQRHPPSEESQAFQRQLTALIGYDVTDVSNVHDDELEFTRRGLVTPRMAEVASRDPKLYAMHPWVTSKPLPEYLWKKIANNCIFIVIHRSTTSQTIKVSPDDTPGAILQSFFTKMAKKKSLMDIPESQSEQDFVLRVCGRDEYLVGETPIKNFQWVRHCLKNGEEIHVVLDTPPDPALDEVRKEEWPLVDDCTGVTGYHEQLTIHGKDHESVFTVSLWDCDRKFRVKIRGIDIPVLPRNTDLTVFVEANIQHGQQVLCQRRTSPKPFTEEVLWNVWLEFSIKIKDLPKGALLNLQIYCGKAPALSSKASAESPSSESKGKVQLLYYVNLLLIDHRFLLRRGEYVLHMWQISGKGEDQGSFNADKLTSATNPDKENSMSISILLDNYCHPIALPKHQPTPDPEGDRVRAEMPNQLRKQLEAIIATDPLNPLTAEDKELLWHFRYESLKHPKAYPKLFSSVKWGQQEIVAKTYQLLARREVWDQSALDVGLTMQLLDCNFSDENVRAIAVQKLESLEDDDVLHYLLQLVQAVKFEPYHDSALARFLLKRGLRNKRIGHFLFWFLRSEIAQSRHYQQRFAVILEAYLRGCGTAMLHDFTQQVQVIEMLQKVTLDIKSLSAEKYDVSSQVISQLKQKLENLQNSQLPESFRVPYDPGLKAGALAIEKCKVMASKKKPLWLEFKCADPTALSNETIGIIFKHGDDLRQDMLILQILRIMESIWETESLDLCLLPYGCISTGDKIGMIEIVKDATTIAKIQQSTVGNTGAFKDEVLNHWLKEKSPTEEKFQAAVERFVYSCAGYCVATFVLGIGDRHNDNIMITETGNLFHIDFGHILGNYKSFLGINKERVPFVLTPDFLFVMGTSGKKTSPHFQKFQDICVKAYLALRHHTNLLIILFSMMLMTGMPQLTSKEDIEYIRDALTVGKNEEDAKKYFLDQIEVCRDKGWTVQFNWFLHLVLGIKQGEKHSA
To each well of a 96 well polystyrene plate [Corning Costar Item No. 3795], 61 μL of Reaction Mix [55 mM HEPES pH 7.5, 11 mM MgCl2, 27 mM NaCl, 5.5 mM DTT, 0.11 mg/mL BSA, 51 μM phosphatidylinositol(4,5)bisphosphate diC16 (PI(4,5)P2; Avanti Polar Lipids, Cat. No. 840046P) and 18 nM PI3Kγ] was added. Separately, ten 2.5-fold serial dilutions of compounds of the invention were prepared in 100% DMSO with the last two wells reserved for no inhibitor controls (enzyme+no compound and no enzyme control+no compound). 1 μL it of compound or DMSO alone was added by 12-channel hand pipet and incubated for 10 minutes at room temperature (25° C.). To initiate the reaction, 5 μl of ATP Mix [49 mM HEPES pH 7.5 and 1340 ^33P-ATP was added and allowed to incubate for 30 min. at 25° C. Final concentrations of the reaction were 50 mM HEPES 7.5, 10 mM MgCl2, 25 mM NaCl, 5 mM DTT, 0.1 mg/mL BSA, 46 μM PI(4,5)P2, 16.6 nM PI3Kγ, and 100 μM ATP. Final inhibitor concentrations ranged from 10 μM to 1 nM.
After incubation, 60 μL of the reaction was quenched by transferring to 504 of 20% TCA/Water in each well of a 96 well glass fiber filter plate [Millipore Cat. No. MAFBN0B50]. The plate was dried by vacuum and then washed five times in a Bio-Tek Instruments ELX-405 Auto Plate Washer with 150 μL of 5% TCA/Water. 50 μL of scintillation fluid was added to each well and the plate was read immediately on a Perkin-Elmer TopCount™ NXT liquid scintillation counter.
Inhibition data was background subtracted (no enzyme control+no inhibitor control) and fit to the competitive tight binding Ki equation described by Morrison and Stone. [J. F. Morrison and S. R. Stone, Comments Mol. Cell. Biophys. 2 (1985) 347-368].

[1] abbreviates: Protocol B, 100 μM ATP, 46 μM PI(4,5)P2 diC16, 16.6 nM PI3Kγ, average if more than one result, read-out: PI3Kγ enzyme inhibition Ki.

For the molecule `CC(=O)Nc1nc(C)c(-c2ccc(C(=O)N(C)Cc3ccco3)o2)s1` [Compound 2], the inhibitory constant (Ki) under setting [1] lay within 100 to 1000 nM.
For the molecule `CC(=O)Nc1nc(C)c(-c2ccc(C(=O)NCc3cc(Cl)cc(Cl)c3)o2)s1` [Compound 3], the inhibition constant Ki under setting [1] lay within 1000 to 5000 nM.
The same measure, in the same setting: as for `CC(=O)Nc1nc(C)c(-c2ccc(C(=O)N3CCCC3c3cccc(Br)c3)o2)s1` (stereo not shown) [Compound 4], the figure is 1000 to 5000 nM; as for `CC(=O)Nc1nc(C)c(-c2ccc(C(=O)N3CCSCC3)o2)s1` [Compound 5], 100 to 1000 nM; as for `CC(=O)Nc1nc(C)c(-c2ccc(C(=O)N3CCCC(C)C3)o2)s1` (stereo not shown) [Compound 6], 100 to 1000 nM.
With `CC(=O)Nc1nc(C)c(-c2ccc(C(=O)N3CCN(C)CC3)o2)s1` [Compound 7], under setting [1], the Ki lay in the range of 1000 to 5000 nM.
Same read-out and setting: next, `CC(=O)Nc1nc(C)c(-c2ccc(C(=O)N3CCN(Cc4ccccc4)CC3)o2)s1` [Compound 8]: 100 to 1000 nM; `CC(=O)Nc1nc(C)c(-c2ccc(C(=O)NCCC#N)o2)s1` [Compound 9]: 100 to 1000 nM.
Same read-out and setting: as for `CC(=O)Nc1nc(C)c(-c2ccc(C(=O)N[C@@H](CO)c3ccccc3)o2)s1` [Compound 10, (R)-5-(2-acetamido-4-methylthiazol-5-yl)-N-(2-hydroxy-1-phenylethyl)furan-2-carboxamide], the figure is 100 to 1000 nM.
The same measure, in the same setting: next, `CC(=O)Nc1nc(C)c(-c2ccc(C(=O)N3CCCCC3)o2)s1` [Compound 11]: 100 to 1000 nM.
As for `CC(=O)Nc1nc(C)c(-c2ccc(C(=O)NC3(CO)CCCC3)o2)s1` [Compound 12], the inhibitory constant (Ki) under setting [1] was 100 to 1000 nM.
The same measure, in the same setting: as for `CC(=O)Nc1nc(C)c(-c2ccc(C(=O)N3CCCC(c4ccc(F)cc4)C3)o2)s1` (stereo not shown) [Compound 13], the figure is 100 to 1000 nM.
For the molecule `CC(=O)Nc1nc(C)c(-c2ccc(C(=O)N3CCC(O)C3)o2)s1` (stereo not shown) [Compound 14], under setting [1], the inhibition constant Ki was 100 to 1000 nM.
Still for that read-out and setting: as for `CC(=O)Nc1nc(C)c(-c2ccc(C(=O)N3CCC(N4CCCC4)CC3)o2)s1` [Compound 15], the figure is 1000 to 5000 nM.
`CC(=O)Nc1nc(C)c(-c2ccc(C(=O)N3CCC(C#N)(c4ccccc4)CC3)o2)s1` [Compound 16] registered an inhibition constant (Ki) of 100 to 1000 nM.
In the case of `CC(=O)Nc1nc(C)c(-c2ccc(C(=O)N3CCCC(O)C3)o2)s1` (stereo not shown) [Compound 17], under setting [1], the inhibition constant Ki was 100 to 1000 nM.
The same measure, in the same setting: next, `CC(=O)Nc1nc(C)c(-c2ccc(C(=O)NCc3c(Cl)cccc3Cl)o2)s1` [Compound 18]: 100 to 1000 nM; `CC(=O)Nc1nc(C)c(-c2ccc(S(N)(=O)=O)o2)s1` [Compound 19]: < 100 nM; `CNS(=O)(=O)c1ccc(-c2sc(NC(C)=O)nc2C)o1` [Compound 20]: < 100 nM.
In the case of `CC(=O)Nc1nc(C)c(-c2ccc(S(=O)(=O)N(C)C)o2)s1` [Compound 21], under setting [1], the Ki was < 100 nM.
Turning to `CC(=O)Nc1nc(C)c(-c2ccc(S(=O)(=O)NCCO)o2)s1` [Compound 22], the inhibitory constant (Ki) under setting [1] was < 100 nM.
Still for that read-out and setting: next, `COCCNS(=O)(=O)c1ccc(-c2sc(NC(C)=O)nc2C)o1` [Compound 23]: < 100 nM; `CC(=O)Nc1nc(C)c(-c2ccc(S(=O)(=O)N(C)CCO)o2)s1` [Compound 24]: < 100 nM; `CC(=O)Nc1nc(C)c(-c2ccc(S(=O)(=O)NCC(C)C)o2)s1` [Compound 25]: < 100 nM.
For the molecule `CC(=O)Nc1nc(C)c(-c2ccc(S(=O)(=O)NCCC#N)o2)s1` [Compound 26], under setting [1], the Ki is < 100 nM.
Same read-out and setting: next, `CC(=O)NCCNS(=O)(=O)c1ccc(-c2sc(NC(C)=O)nc2C)o1` [Compound 27]: < 100 nM; `CC(=O)Nc1nc(C)c(-c2ccc(S(=O)(=O)NC3CC3)o2)s1` [Compound 28]: < 100 nM.
On the same count and under the same terms, as for `CC(=O)Nc1nc(C)c(-c2ccc(S(=O)(=O)NC3CCCC3)o2)s1` [Compound 29], the figure is < 100 nM; as for `CC(=O)Nc1nc(C)c(-c2ccc(S(=O)(=O)N3CCCCC3)o2)s1` [Compound 30], < 100 nM.
Same read-out and setting: as for `CC(=O)Nc1nc(C)c(-c2ccc(S(=O)(=O)N3CCN(C)CC3)o2)s1` [Compound 31], the figure is < 100 nM.
With `CC(=O)Nc1nc(C)c(-c2ccc(S(=O)(=O)N3CC(C)OC(C)C3)o2)s1` (stereo not shown) [Compound 32], under setting [1], the Ki is < 100 nM.
On the same count and under the same terms, as for `CC(=O)Nc1nc(C)c(-c2ccc(S(=O)(=O)Nc3ccccc3)o2)s1` [Compound 33], the figure is < 100 nM; as for `CC(=O)Nc1nc(C)c(-c2ccc(S(=O)(=O)NCc3ccccc3)o2)s1` [Compound 34], < 100 nM.
The same measure, in the same setting: as for `CC(=O)Nc1nc(C)c(-c2ccc(S(=O)(=O)N3CCN(Cc4ccccc4)CC3)o2)s1` [Compound 35], the figure is < 100 nM.
Regarding `CC(=O)Nc1nc(C)c(-c2ccc(S(=O)(=O)NCc3cccc(F)c3)o2)s1` [Compound 36], the inhibition constant Ki under setting [1] is < 100 nM.
For the molecule `CC(=O)Nc1nc(C)c(-c2ccc(S(=O)(=O)NCc3cccc(Cl)c3)o2)s1` [Compound 37], under setting [1], the Ki was < 100 nM.
`CC(=O)Nc1nc(C)c(-c2ccc(S(=O)(=O)NCc3cccc(Br)c3)o2)s1` [Compound 38]: the Ki under setting [1] is < 100 nM.
For `CC(=O)Nc1nc(C)c(-c2ccc(S(=O)(=O)NCc3cccc(I)c3)o2)s1` [Compound 39], the Ki under setting [1] was < 100 nM.
In the case of `CC(=O)Nc1nc(C)c(-c2ccc(S(=O)(=O)NCc3cccc([N+](=O)[O-])c3)o2)s1` [Compound 40], the Ki under setting [1] was < 100 nM.
The same measure, in the same setting: as for `CC(=O)Nc1nc(C)c(-c2ccc(S(=O)(=O)NCc3cccc(O)c3)o2)s1` [Compound 41], the figure is < 100 nM.
The same measure, in the same setting: next, `CC(=O)Nc1nc(C)c(-c2ccc(S(=O)(=O)NCc3cccc(C(F)(F)F)c3)o2)s1` [Compound 42]: < 100 nM; `CC(=O)Nc1nc(C)c(-c2ccc(S(=O)(=O)NCc3cccc(OC(F)(F)F)c3)o2)s1` [Compound 43]: 100 to 1000 nM.
The same measure, in the same setting: next, `CC(=O)Nc1nc(C)c(-c2ccc(S(=O)(=O)NCc3cc(Cl)cc(Cl)c3)o2)s1` [Compound 44]: 100 to 1000 nM; `COc1cc(CNS(=O)(=O)c2ccc(-c3sc(NC(C)=O)nc3C)o2)cc(OC)c1` [Compound 45]: 100 to 1000 nM; `CC(=O)Nc1nc(C)c(-c2ccc(S(=O)(=O)NCc3cc(F)cc(F)c3)o2)s1` [Compound 46]: < 100 nM.
In the case of `CC(=O)Nc1nc(C)c(-c2ccc(S(=O)(=O)NCc3cccc(NS(C)(=O)=O)c3)o2)s1` [Compound 47], the inhibitory constant (Ki) under setting [1] is < 100 nM.
As to `CC(=O)Nc1nc(C)c(-c2ccc(S(=O)(=O)N(C)Cc3ccccc3)o2)s1` [Compound 48], the inhibition constant Ki under setting [1] was < 100 nM.
Still for that read-out and setting: as for `CC(=O)Nc1nc(C)c(-c2ccc(S(=O)(=O)N[C@@H](C)c3ccccc3)o2)s1` [Compound 49], the figure is < 100 nM; as for `CC[C@H](NS(=O)(=O)c1ccc(-c2sc(NC(C)=O)nc2C)o1)c1ccccc1` [Compound 50], < 100 nM.
Take `CC(=O)Nc1nc(C)c(-c2ccc(S(=O)(=O)N[C@H](C)c3ccccc3)o2)s1` [Compound 51]: under setting [1], the Ki was < 100 nM.
Consider `CC(=O)Nc1nc(C)c(-c2ccc(S(=O)(=O)N[C@H](CCO)c3ccccc3)o2)s1` [Compound 52], for which the Ki under setting [1] is < 100 nM.
Same read-out and setting: next, `CC(=O)Nc1nc(C)c(-c2ccc(S(=O)(=O)N[C@@H](CO)c3ccccc3)o2)s1` [Compound 53]: < 100 nM; `CC(=O)Nc1nc(C)c(-c2ccc(S(=O)(=O)NC(C)(C)c3ccccc3)o2)s1` [Compound 54]: < 100 nM; `CC(=O)Nc1nc(C)c(-c2ccc(S(=O)(=O)NCc3ccccc3Cl)o2)s1` [Compound 55]: < 100 nM.
Still for that read-out and setting: as for `CC(=O)Nc1nc(C)c(-c2ccc(S(=O)(=O)N[C@H]3CCc4ccccc43)o2)s1` [Compound 56], the figure is < 100 nM; as for `CC(=O)Nc1nc(C)c(-c2ccc(S(=O)(=O)N[C@@H]3CCc4ccccc43)o2)s1` [Compound 57], < 100 nM.
Take `COc1ccccc1CNS(=O)(=O)c1ccc(-c2sc(NC(C)=O)nc2C)o1` [Compound 58]: the Ki under setting [1] is < 100 nM.
`CC(=O)Nc1nc(C)c(-c2ccc(S(=O)(=O)NCCF)o2)s1` [Compound 59]: under setting [1], the inhibition constant Ki is < 100 nM.
The same measure, in the same setting: next, `CC(=O)Nc1nc(C)c(-c2ccc(S(=O)(=O)NCC(F)F)o2)s1` [Compound 60]: < 100 nM.
On to `CC(=O)Nc1nc(C)c(-c2ccc(S(=O)(=O)N(C)CC(F)(F)F)o2)s1` [Compound 61], for which the inhibition constant (Ki) under setting [1] was < 100 nM.
Take `COC(=O)C(NS(=O)(=O)c1ccc(-c2sc(NC(C)=O)nc2C)o1)c1ccccc1` (stereo not shown) [Compound 62]: under setting [1], the inhibition constant Ki was < 100 nM.
The same measure, in the same setting: next, `CC(=O)Nc1nc(C)c(-c2ccc(S(=O)(=O)NC(C#N)c3ccccc3)o2)s1` (stereo not shown) [Compound 63]: < 100 nM; `CC(=O)Nc1nc(C)c(-c2ccc(S(=O)(=O)NCC#N)o2)s1` [Compound 64]: < 100 nM.
Still for that read-out and setting: as for `CC(=O)Nc1nc(C)c(-c2ccc(S(=O)(=O)Nc3ccccc3C)o2)s1` [Compound 65], the figure is < 100 nM.
